From patent publication US20210087337A1, “COMPOUNDS, COMPOSITIONS AND METHODS RELATED TO ANTIMICROBIAL APPLICATIONS” (VYOME THERAPEUTICS LIMITED, priority 2016, published 2021)
In brackets after ≈: the same amount, converted by molar mass. Like-named read-outs stand apart in the source and are kept apart here. Values belong to the molecule of their own block, whether it stands above or below them.

Key:
S. epidermidis S12-1 = test: MIC by micro broth dilution (CLSI); type: cell-based; conditions: Staphylococcus epidermidis, S121
[1] = system: Bacterial and fungal cultures; test: MIC test, overall antimicrobial activity in words; type: cell-based; conditions: overall statement on MIC results
Method: (§1) Materials: Brain heart infusion broth, Bacterial and fungal cultures, 96 wells plate, Autoclave, Incubator. The microbial strains used in the validation study/testing were procured from MTCC (Chandigarh, India)—S. aureus (MTCC-6908), E. coli (MTCC-1687); NCIM (Pune, India)—E. aerogenes (NCIM-5139); ATCC (USA): S. aureus (ATCC-43300), S. epidermidis (ATCC-35984), P. aeruginosa (ATCC-27853), A. baumanii (ATCC-19606), K. pneumoniae (ATCC-13883), E. coli (ATCC-BAA196); CCARM (Korea)—Candida albicans (CCARM-14009), P. aeruginosa (CCARM-2161) and A. baumanii (CCARM-12001).
(§2) Method: MIC of present molecules were determined by micro broth dilution method as per the Clinical and Laboratory Standards Institute (CLSI) guidelines. Microbial strains were cultured in appropriate media [Brain Heart Infusion Agar (BHIA) for bacteria and Sabouraud dextrose broth (SDB) for Candida] at 37° C. for 24 hours. […] For inoculum, microbial culture turbidity was adjusted to 0.1 optical density (OD) at 600 nm in UV—Visual spectrophotometer (approximately 1.5×10^8 cells/ml) and further diluted (100 times with sterile media). Diluted culture suspension (100 μl) was added to each well except sterility control wells (column 12 of 96 well plate). […] The MIC of the test compounds were determined by observing the lowest concentration of test compound that prevented the visual bacterial growth.

MRSA = test: MIC test, text summary against MRSA; type: cell-based, S. aureus
Method: as §1, §2

[2] = system: biofilm formed by gram positive, gram negative pathogen; test: Biofilm disruption activity, general statement; type: cell-based; conditions: embodiment statement
Method: (§3) Method: S. epidermidis ATCC 35984 was grown in Brain Heart Infusion Agar (BHIA) at 37° C. for 24 h. The loop full of bacterial culture was suspended in sterile water and adjusted the turbidity to 0.1 OD at 600 nm in UV—Visual spectrophotometer (approximately 1.5×10^8) and further diluted (100 times with sterile BHI broth), 100 μL of culture suspension was added into 96 well plate and plates were incubated at 37° C. for 48 h for biofilm formation. The biofilm was washed twice with sterile water to remove the planktonic cells. Then biofilm was treated with 100 μL of BHI broth suspended with various concentrations of compounds of the present disclosure, and plates were further incubated at 37° C. for 24 h. The minimum biofilm disruption concentration (MBDC) was determined by staining the biofilm with MTT reagent incubated plates at 37° C. for 2 h. The precipitate was dissolved in 100 μl of dimethyl sulfoxide (DMSO) and the absorbance was measured at 600 nm in multi well plate reader. The minimum biofilm disruption concentration was calculated as subtracting the MTT OD value of drug treated with 48 h growth control.
(§4) Method: E. coli ATCC BAA196 was grown in Brain Heart Infusion Agar (BHIA) at 37° C. for 24 h. The loop full of bacterial culture was suspended in sterile water and the turbidity to 0.1 OD at 600 nm in UV—Visual spectrophotometer (approximately 1.5×10^8) and further diluted (100 times with sterile BHI broth+1% glucose), 100 μL of culture suspension was added into 96 well plate and plates were incubated at 37° C. for 24 h for biofilm formation. The biofilm was washed twice with sterile water to remove the planktonic cells. Then biofilm was treated with 100 μL of BHI broth+1% glucose suspended with various concentrations of compounds of the present disclosure, and plates were further incubated at 37° C. for 24 h. The minimum biofilm disruption concentration (MBDC) was determined by staining the biofilm with MTT reagent incubated plates at 37° C. for 2 h, and the precipitate was dissolved in 100 μl of dimethyl sulfoxide (DMSO) and the absorbance was measured at 600 nm in multi well plate reader. The minimum biofilm disruption concentration was calculated by subtracting the MTT OD value of drug treated with 24 h growth control.

HaCat cell line = test: Cytotoxicity MTT assay; type: cell-based, human
Method: Different dilutions of compounds of the present disclosure in DMSO were used for the MTT assay so that the final concentration of DMSO in the assay was <5%. […] After 3 h incubation, MTT was removed and 100 μl of DMSO was added. Absorbance was measured in an ELISA reader at 570 nm. The assay controls were (a) medium control (medium without cells), (b) negative control (medium with cells but without the experimental compound), (iii) positive control (medium with cells and with 50 μM camptothecin). The experiment was done in triplicates and the data plotted as viability of cells in percentage.

[3] = Water solubility as described; type: physicochemical
[4] = system: K. pneumoniae [ATCC 1388]; test: MIC by micro broth dilution (CLSI); type: cell-based
Method: as §1
(§5) Method: MIC of present molecules were determined by micro broth dilution method as per the Clinical and Laboratory Standards Institute (CLSI) guidelines. Microbial strains were cultured in appropriate media [Brain Heart Infusion Agar (BHIA) for bacteria and Sabouraud dextrose broth (SDB) for Candida] at 37° C. for 24 hours. […] For inoculum, microbial culture turbidity was adjusted to 0.1 optical density (OD) at 600 nm in UV—Visual spectrophotometer (approximately 1.5×10^8 cells/ml) and further diluted (100 times with sterile media). Diluted culture suspension (100 μl) was added to each well except sterility control wells (column 12 of 96 well plate). Column 11 of 96 well plate was used as growth control and vehicle control. The plates were incubated at 37° C. for 24 h. The MIC of the test compounds were determined by observing the lowest concentration of test compound that prevented the visual bacterial growth.

[5] = system: Candida albicans (CCARM-14009); test: MIC by micro broth dilution (CLSI); type: cell-based; conditions: for MIC: C. albicans CCARM 14009
Method: as §1, §5

E. coli (ATCC-BAA196) = test: MIC by micro broth dilution (CLSI); type: cell-based
Method: as §1, §5

S. aureus (MTCC-6908) = test: MIC by micro broth dilution (CLSI); type: cell-based
Method: as §1, §5

E. aerogenes (NCIM-5139) = test: MIC by micro broth dilution (CLSI); type: cell-based
Method: as §1, §5

[6] = system: S. epidermidis (ATCC-35984); test: MIC by micro broth dilution (CLSI); type: cell-based
Method: as §1, §5

[7] = system: P. aeruginosa (ATCC-27853); test: MIC by micro broth dilution (CLSI); type: cell-based
Method: as §1, §5

[8] = system: A. baumannii [ATCC 19606]; test: MIC by micro broth dilution (CLSI); type: cell-based
Method: as §1, §5

S. aureus (ATCC-43300) = test: MIC by micro broth dilution (CLSI); type: cell-based
Method: as §1, §5

E. coli (MTCC-1687) = test: MIC by micro broth dilution (CLSI); type: cell-based
Method: as §1, §5

E. coli = test: MIC test, text summary against E. coli (strain not stated); type: cell-based
Method: as §1, §2

[9] = system: S. epidermidis ATCC 35984 biofilm; test: S. epidermidis biofilm disruption assay (MTT); type: cell-based; conditions: for EC50: Staphylococcus epidermidis, ATCC35984, read-out: Concentration (mg/ml) to disrupt 50% biofilm
Method: Materials: Brain heart infusion broth, S. epidermidis ATCC 35984, 96 well plates, Autoclave, Incubator, 0.05% MTT (3-(4,5-Dimethylthiazol-2-yl)-2,5-Diphenyltetrazolium Bromide) reagent prepared in water, Multiwell Plate Reader.
as §3

Gram negative pathogens = test: MIC test, against Gram negative pathogens; type: cell-based
Method: as §1, §2

Gram positive pathogen = test: MIC test, text summary against Gram positive pathogens; type: cell-based
Method: as §1, §2

[10] = system: E. coli ATCC BAA196 biofilm; test: E. coli biofilm disruption assay (MTT); type: cell-based; conditions: for Minimum biofilm disruption concentration: 24 h biofilm, 24 h treatment, MTT
Method: Materials: Brain heart infusion broth+1% glucose, Escherichia coli ATCC BAA196, 96 wells plate, Autoclave, Incubator, MTT, Multiwell Plate Reader.
as §4

[11] = Candida albicans, CCARM14009, read-out: MIC
[12] = Staphylococcus aureus, MTCC6908, read-out: MIC
[13] = Staphylococcus epidermidis, ATCC35984, read-out: MIC
[14] = 48 h biofilm, 24 h treatment, MTT

MIC (S. epidermidis S12-1): 50 µg/mL | water solubility [3]: water soluble | MIC ([4]; Klebsiella pneumoniae, ATCC1388, read-out: MIC): > 256 µg/mL | MIC [5, 11]: 50 µg/mL | MIC (E. coli (ATCC-BAA196); Escherichia coli, ATCCBAA196, read-out: MIC): 100 µg/mL | MIC (S. aureus (MTCC-6908); [12]): 6.25 µg/mL | MIC (E. aerogenes (NCIM-5139); Klebsiella aerogenes, NCIM5139, read-out: MIC): > 256 µg/mL | MIC [6, 13]: 6.25 µg/mL | MIC ([7]; Pseudomonas aeruginosa, ATCC27853, read-out: MIC): > 256 µg/mL | MIC ([8]; Acinetobacter baumannii, ATCC19606, read-out: MIC): > 256 µg/mL | MIC (S. aureus (ATCC-43300); Staphylococcus aureus, ATCC43300, read-out: MIC): 6.25 µg/mL | MIC (E. coli (MTCC-1687); Escherichia coli, MTCC1687, read-out: MIC): 0.8 µg/mL | EC50 [9, 14]: > 2 mg/mL
SMILES: CCCCCCCCC/C=C\CCCCCCCCSC[C@@H](NC(C)=O)C(=O)N(CCCN)CCCN.Cl.Cl [SMP-047, (S,Z)-2-Acetamido-N,N-bis(3-aminopropyl)-3-(nonadec-9-en-1-ylthio)propanamide di-hydrochloride]
antimicrobial / antibacterial activity [1]: broad spectrum antibacterial activity | antibacterial activity against MRSA (MRSA): potent antibacterial activity | biofilm disruption activity [2]: biofilm disruption activity | IC50 (HaCat cell line; Homo sapiens, HaCaT, 48 h, MTT): 200 to 400 µg/mL | safety profile in HaCaT cell lines (HaCat cell line; compared with PHMB and chlorohexidine): better safety profile | antifungal activity against Candida species [5]: potent antifungal activity | activity towards resistant E. coli (E. coli): potent

SMILES: CCCCCCCCCCCCSC[C@@H](NC(C)=O)C(=O)N(CCCCNC(=O)[C@@H](N)CNC(=N)N)CCCNC(=O)[C@@H](N)CNC(=N)N.Cl [SMP-051]
activity against Gram negative pathogens (Gram negative pathogens): very efficient | improvement of antibacterial activity in comparison to SMP-002 (Gram negative pathogens; against Gram negative pathogen): 100-150 fold | improvement of antibacterial activity in comparison to SMP-002 (Gram positive pathogen): 10-20 fold | antimicrobial / antibacterial activity [1]: broad spectrum antibacterial activity | biofilm disruption activity [2]: biofilm disruption activity | IC50 in HaCat cell line (HaCat cell line; 48 h, MTT): ~25.0 µg/mL | disruption of E. coli biofilm [10]: the best | Minimum biofilm disruption concentration [10]: 0.25 to 0.5 mg/mL | MIC [4]: 8.0 µg/mL | MIC [5]: 200 µg/mL | MIC (E. coli (ATCC-BAA196)): 100 µg/mL | MIC (S. aureus (MTCC-6908)): 6.25 µg/mL | MIC (E. aerogenes (NCIM-5139)): 8.0 µg/mL | MIC [6]: 1.6 µg/mL | MIC [7]: 16.0 µg/mL | MIC [8]: 128.0 µg/mL | MIC (S. aureus (ATCC-43300)): 6.25 µg/mL | MIC (E. coli (MTCC-1687)): 1.6 µg/mL | Concentration (mg/ml) to disrupt 50% biofilm [9, 14]: >2 mg/mL

MIC (S. epidermidis S12-1): 25 µg/mL | MIC [5, 11]: 100 µg/mL | MIC (S. aureus (MTCC-6908); [12]): 25 µg/mL | MIC [6, 13]: 8 to 13 µg/mL | EC50 [9, 14]: 0.01 mg/mL
SMILES: CCCCCCCCCCCCSC[C@@H](NC(C)=O)C(=O)N(CCCN)CCCN.Cl.Cl [SMP-002, (S)-2-Acetamido-N,N-bis(3-aminopropyl)-3-(dodecylthio)propanamide di-hydrochloride]
biofilm disruption activity [2]: biofilm disruption activity | Minimum biofilm disruption concentration [10]: 2 to 4 mg/mL | anti-biofilm activity against S. epidermidis [9]: maintain anti-biofilm activity like SMP-001

SMILES: N=C(NCCCCCCNC(=N)NC(=N)Nc1ccc(Cl)cc1)NC(=N)Nc1ccc(Cl)cc1 [Chlorohexidine, reference compound]
IC50 in HaCat cell line (HaCat cell line; 48 h, MTT): ~200 µg/mL (≈ 396 µM)

EC50 [9, 14]: 0.02 to 0.125 mg/mL (≈ 60.3 to 377 µM)
SMILES: CCCCCCCCCCCCSC[C@H](NC(C)=O)C(=O)O [SMP-001, N-Acetyl-S-dodecyl-L-cysteine]
biofilm disruption activity [2]: biofilm disruption activity | Minimum biofilm disruption concentration [10]: 0.5 to 2.0 mg/mL | anti-biofilm activity against S. epidermidis [9]: destroy biofilm effectively

EC50 [9, 14]: > 4 mg/mL
SMILES: CC(=O)N[C@@H](CS)C(=O)O [NAC, N-acetyl cysteine, reference compound]
